Numbers after ± are expanded uncertainties.
Columns and labels:
[1] = xn = mol fraction of the nth substance listed; settings: 100 kPa, Liquid, Vibrating tube method
[2] = molar heat capacity at constant pressure; xn = mol fraction of the nth substance listed; settings: 100 kPa, Liquid, Extra sensitive DSC

Cc1ccc(C(C)C)cc1 [1-(1-methylethyl)-4-methylbenzene] + CCCO
Settings	mass density, 298.15 K [kg/m3]	mass density, 308.15 K [kg/m3]	mass density, 318.15 K [kg/m3]	mass density, 328.15 K [kg/m3]	molar heat capacity at constant pressure, 298.8 K [J/K/mol]	molar heat capacity at constant pressure, 308.7 K [J/K/mol]	molar heat capacity at constant pressure, 318.6 K [J/K/mol]	molar heat capacity at constant pressure, 328.5 K [J/K/mol]
[1], x1 = 0.0499	804.92 ± 0.71	796.73 ± 0.71	788.38 ± 0.71	779.8 ± 0.71	–	–	–	–
[1], x1 = 0.1007	809.8 ± 0.71	801.54 ± 0.71	793.11 ± 0.71	784.46 ± 0.71	–	–	–	–
[1], x1 = 0.2029	818.12 ± 0.71	809.76 ± 0.71	801.22 ± 0.71	792.47 ± 0.71	–	–	–	–
[1], x1 = 0.3021	824.8 ± 0.71	816.37 ± 0.71	807.78 ± 0.71	798.98 ± 0.71	–	–	–	–
[1], x1 = 0.4032	830.42 ± 0.71	821.98 ± 0.71	813.38 ± 0.71	804.59 ± 0.71	–	–	–	–
[1], x1 = 0.5045	835.28 ± 0.71	826.83 ± 0.71	818.25 ± 0.71	809.51 ± 0.71	–	–	–	–
[1], x1 = 0.6044	839.47 ± 0.71	831.05 ± 0.71	822.51 ± 0.71	813.82 ± 0.71	–	–	–	–
[1], x1 = 0.6974	842.95 ± 0.71	834.57 ± 0.71	826.09 ± 0.71	817.49 ± 0.71	–	–	–	–
[1], x1 = 0.8035	846.57 ± 0.71	838.26 ± 0.71	829.87 ± 0.71	821.37 ± 0.71	–	–	–	–
[1], x1 = 0.8989	849.61 ± 0.71	841.39 ± 0.71	833.1 ± 0.71	824.75 ± 0.71	–	–	–	–
[1], x1 = 0.9508	851.22 ± 0.71	843.07 ± 0.71	834.88 ± 0.71	826.65 ± 0.71	–	–	–	–
[1], x1 = 1	852.99 ± 0.71	844.94 ± 0.71	836.86 ± 0.71	828.75 ± 0.71	–	–	–	–
[2], x1 = 0.0499	–	–	–	–	151.2 ± 5.9	158.5 ± 6.1	165.9 ± 6.4	173.4 ± 6.7
[2], x1 = 0.1007	–	–	–	–	159.6 ± 6.2	166.5 ± 6.5	173.5 ± 6.7	180.7 ± 7
[2], x1 = 0.2029	–	–	–	–	174.5 ± 6.8	182.2 ± 7.1	188.4 ± 7.3	195.4 ± 7.6
[2], x1 = 0.3021	–	–	–	–	186.9 ± 7.2	194 ± 7.5	201.2 ± 7.8	208.3 ± 8.1
[2], x1 = 0.4032	–	–	–	–	198.6 ± 7.7	206.1 ± 8	213.2 ± 8.3	220.7 ± 8.5
[2], x1 = 0.5045	–	–	–	–	210.6 ± 8.2	217.2 ± 8.4	223.9 ± 8.7	231.2 ± 9
[2], x1 = 0.6044	–	–	–	–	221 ± 8.6	227.2 ± 8.8	233.3 ± 9	240.2 ± 9.3
[2], x1 = 0.6974	–	–	–	–	229.1 ± 8.9	235 ± 9.1	240.8 ± 9.3	246.8 ± 9.6
[2], x1 = 0.8035	–	–	–	–	237.6 ± 9.2	242.8 ± 9.4	248.1 ± 9.6	253.4 ± 9.8
[2], x1 = 0.8989	–	–	–	–	242.2 ± 9.4	246.2 ± 9.5	250.4 ± 9.7	254.5 ± 9.9
[2], x1 = 0.9508	–	–	–	–	242.4 ± 9.4	245.3 ± 9.5	248.8 ± 9.6	252.6 ± 9.8
[2], x1 = 1	–	–	–	–	240.9 ± 9.3	244.8 ± 9.5	249.4 ± 9.7	254.6 ± 9.9

From the NIST ThermoML archive (doi:10.1016/j.jct.2018.03.021)
